Assay results as given in patent publication US11246907B2, “Immunosuppressive agents and their use in therapy” (Norwegian University of Science and Technology, priority 2013, dated 2022).
Ends that are not written are not given here.

Key:
[1] = system: Akt Ser473 phosphorylation; test: Western blot of Akt Ser473 phosphorylation in JJN-3 cells; format: cell-based; conditions: 6 μM ATX-101, 4, 8, 24 h
[2] = system: p70 S6 kinase Thr389 phosphorylation; test: Western blot of p70 S6 kinase Thr389 phosphorylation in JJN-3 cells; format: cell-based; conditions: 6 μM ATX-101, 4, 8, 24 h
[3] = system: ERK1 Thr202/Tyr204 and ERK2 Thr185/Tyr187 phosphorylation; test: Western blot of ERK1/2 phosphorylation in JJN-3 cells; format: cell-based; conditions: 6 μM ATX-101, 4, 8, 24 h
[4] = system: IFN-β; test: IFN-β ELISA on supernatants of stimulated monocytes; format: cell-based, human; conditions: LPS- and polyIC-stimulated monocytes; 4 μM (donor 1: 6 μM), 4 h
Protocol: Measured cytokine levels were normalized to cytokine levels from monocytes stimulated with TLR ligand alone. A two fold or higher increase in cytokine level after TLR stimulation was defined as cytokine induction. […] Isolated monocytes were stimulated with 10 ng/ml LPS and 40 μg/ml polyIC alone and in combination with 4 μM ATX-101 for 4 h. […] DRAQS was used for nuclear staining. Bar, 5 μm.
Peripheral blood mononuclear cells were isolated from A+ buffy coats (Blood Bank, St. Olav's University Hospital, Trondheim, Norway) by density gradient centrifugation (Lymphoprep; Axis-Shield PoC, Oslo, Norway). Mononucleated cells were seeded at 4 million cells/ml in serum-free RPMI 1640 supplemented with glutamine and gentamicin. […]
Monocytes were stimulated as described above. IFN-β was measured in supernatants with the VeriKine-HSTMHuman IFN-β Serum ELISA kit (Pestka Biomedical Laboratories, Piscataway, N.J., USA) according to the manufacturer's instructions with the following adaptions: the amount of supernatant was doubled from 50 to 100 μl; sample buffer was reduced from 50 to 25 μl; and antibody solution was reduced from 50 to 25 μl (reducing assay diluent, keeping same volume of antibody concentrate and diluent additive). The OD was measured at 450 nm.

[5] = system: PACT; test: Western blot of PACT protein levels in HaCaT cells; format: cell-based, human; conditions: 12 μM ATX-101 + 2 μg/ml polyIC, 4 h
Protocol: Protein levels were corrected for loading differences (β-tubulin) and normalized to untreated control cells. […] Bar, 5 μm.
The multiple myeloma cell lines JJN-3 (gift from J. Ball, University of Birmingham, United Kingdom) were grown in RPMI 1640 (Sigma-Aldrich, Schnelldorf, Germany) supplemented with 10% FCS, 2 mM glutamine (Sigma-Aldrich), 2.5 μg/ml amphotericin B (Sigma-Aldrich) and 100 μg/ml gentamicin (Invitrogen, Carlsbad, Calif., USA). HaCaT cells (spontaneously transformed keratinocytes) were cultured in DMEM (Sigma-Aldrich) containing FCS, glutamine, amphotericin B, and gentamicin. All cells were cultured at 37° C. in a humidified atmosphere of 5% CO2.
Mononucleated cells were seeded and stimulated as described above. JJN-3 cells were treated with ATX-101 (6 μM) for 4 h. HaCaT cells were treated with ATX-101 (12 μM), polylC (2 μg/ml), and LPS (100 ng/ml) for 4 h. […] The proteins were visualized with the Odyssey infrared imaging system (LI-COR) and quantified using Odyssey Image Studio V2. […]

[6] = system: monocytes; test: Annexin staining / flow cytometry of monocytes (apoptosis); format: cell-based, human; conditions: for Percentage of annexin positive cells: 4 hours, monocytes
Protocol: Annexin staining was used to determine cell viability and cells were counted using flow cytometry.
Peripheral blood […] were isolated from A+ buffy coats (Blood Bank, St. Olav's University Hospital) by density gradient centrifugation (Lymphoprep; Axis-Shield PoC, Oslo, Norway). The adherent cell fraction after 90 minute incubation, termed monocytes, were washed twice with HANKS and maintained in RPMI 1640 supplemented with 2 mM glutamine, […] gentamicin and 25% heat-inactivated HS over-night. Cells were cultured at 37° C. in a humidified atmosphere of 5% CO2 over-night. […] An R11 peptide and no peptide treatment were used as controls. After 4 hours, the cells were washed once in PBS, and re-suspended in buffer as recommended by the manufacturer of the Annexin V-Pacific Blue kit (Invitrogen). Cells were identified monocytes according to size (FSC) and granularity (SSC).

Ac-MDRWLVKWKKKRKIRRRRRRRRRRR [ATX-101]
phosphorylation of Akt [1]: decreased
phosphorylation of p70 S6 kinase [2]: decreased
ERK1/2 phosphorylation [3]: transient increase
IFN-β secretion [4]: decreased the IFN-β secretion
PACT protein level, polyIC-stimulated HaCaT cells [5]: further reduced the protein level of PACT
Percentage of annexin positive cells ([6]; 5μM peptide treatment): 72%
Percentage of annexin positive cells ([6]; 10 μM peptide treatment): 79%
induction of apoptosis in monocytes ([6]; at the concentration used for cytokine secretion (4 μM)): did not induce apoptosis
